Results as given in patent US20250162986A1, “Compounds and compositions for neurodegenerative diseases” (Universidade Nova de Lisboa, priority 2022, published 2025).
Structures can show the parent of a compound that is named as a salt.

Key:
Type in all cases: cell-based
[1] = test system: N9 mouse microglia cell line; assay: LPS-induced TNF-α release in microglia cells (ELISA); settings: for activity at 5 µM: Mus musculus, Microglia, read-out: TNFα release (Fold-change relative to LPS); for release of TNF-α (FIG. 1): 100 nM, 2, 4 and 6 hours pre-incubation; for attenuation of TNFα release at lower concentrations: at and below 100 nanomolar (data not shown)
Protocol: (§1) The “N9” murine microglia cell line was cultured in EMEM (Eagle Minimum Essential Media) supplemented with 10% (v/v) FBS, […] L-glutamine, 1% (v/v) NEAA and maintained at 37° C., 5% (v/v) CO2. Experiments were performed on 24-well plates. Compounds were incubated in cells for the indicated amount of time (2, 4 or 6 hours) before the addition of the indicated inflammatory stimuli (Lipopolysaccharide (LPS) or TNFα:IFNγ).
The experiment was conducted in vitro using N9 mouse microglia cell line. Phenolic metabolites or derived-thereof were pre-incubated for 6 hours at 5 micromolar with microglia cells in cell media. Afterwards cells were washed and incubated with lipopolysaccharides for 24 hours. At the end of this period cell media was collected and the presence of TNF-α analyzed using ELISA, thus showing the results as shown in Table 1.
In an embodiment compounds resorcinol-sulfate and phloroglucinol-sulfate were pre-incubated at 100 nanomolar for 2, 4, 6 hours with the cells in the cell media. Afterwards cells were washed and incubated with lipopolysaccharides for 24 hours. At the end of this period cell media was collected and the presence of TNF-α analyzed using ELISA, thus showing the results as substantially depicted in FIG. 1.

[2] = test system: N9 mouse microglia cell line; assay: LPS-induced production of multiple cytokines in microglia cells (flow cytometry, LEGENDplex); settings: 100 nM, 6 hours pre-incubation, then 24 hours lipopolysaccharides
Protocol: as §1
(§2) The experiment was conducted in vitro using N9 mouse microglia cell line. Phenolic metabolites were pre-incubated for 6 hours in the cell media at the indicated concentration. Afterwards cells were washed and incubated with lipopolysaccharides for 24 hours. At the end of this period cell media was collected and the presence of various cytokines analyzed using flow cytometry (LEGENDplex™ Mouse Macrophage/Microglia Panel), thus showing the results as substantially depicted in FIG. 2.

[3] = test system: N9 mouse microglia cell line; assay: TNF-α and IFNγ-induced production of multiple cytokines in microglia cells (flow cytometry, LEGENDplex); settings: 100 nM, 6 hours pre-incubation, then 24 hours TNF-α 10 nM plus IFNγ 1 nM
Protocol: as §1
as §2, with “in the regular cell media” for “in the cell media”, “incubated with TNF-α 10 nM plus IFNγ 1 nM for 24” for “incubated with lipopolysaccharides for 24”, “in FIG. 3.” for “in FIG. 2.”

[4] = test system: LUHMES cells (human dopaminergic cell line); assay: Cell viability and ATP levels after MPP+ oxidative insult; settings: 24 hours pre-treatment at 5 μM, then 24 hours MPP+; for ATP levels (FIG. 5B): luciferase; for cell viability (metabolic capacity) (FIG. 5A): resazurin
Protocol: The LUHMES cells (human dopaminergic cell line) were cultured in advanced DMEM-F12 ([…]) at 37° C. with 5% (v/v) CO2. Experiments were performed in 24 well plates. Compounds were incubated for 24 hours before addition of Parkinson inducing toxin MPP+ was added to cells.
The experiment was conducted in vitro using “LUHMES”, human dopaminergic cell line at 37° C. with 5% CO2. Phenolic metabolites were incubated for 24 hours at 5 μM. After this period cells were washed and incubated (or not) with MPP+ ([…]) for 24 hours in order to produce the oxidative insult, that mimics the dopaminergic lesions found in several neurodegenerative diseases, namely in Parkinson's Disease brain. Afterwards cell medium was replaced with new medium including the cell metabolic dyes: resazurin for 2 hours or luciferase for 30 min. Colour development was measured by fluorescence and luminescence respectively, in a Synergy (Biotek) plate reader, thus showing the results as substantially depicted in FIG. 5.

[5] = 5 micromolar, 6 hours pre-incubation, then 24 hours lipopolysaccharides, ELISA
[6] = then 24 hours lipopolysaccharides

## Cc1ccc(OS(=O)(=O)O)c(O)c1O [2,3-dihydroxy-4-methylphenyl hydrogen sulfate]
[1]; [5]
  activity at 5 µM: 45 ± 4%

## O=S(=O)(O)Oc1cc(O)cc(O)c1 [Phloroglucinol-sulfate, 3,5-dihydroxyphenyl hydrogen sulfate]
[1]; [6]
  release of TNF-α (FIG. 1): reduction in release of TNF-α
[1]; [5]
  activity at 5 µM: 57 ± 6%
[1]
  attenuation of TNFα release at lower concentrations: capability to attenuate TNFα release at lower concentrations
[2]
  multiple cytokines (G-CSF, TNF-α, IL-6, IL-10, IL-1β, CCL17, IL-12p40, TGFβ1, CCL22, IL18, CXCL1) (FIG. 2): reduction in multiple cytokines
[3]
  multiple cytokines (TNF-α, CCL22, IL-10, CCL17, IL-1β, CXCL1, G-CSF, IL-6, IL-18, TGFβ1, IL23, IL-12p40, IL-12p70) (FIG. 3): reduction in multiple cytokines
[4]
  ATP levels (FIG. 5B): protective effects
  cell viability (metabolic capacity) (FIG. 5A): protective effects

## COc1cc(O)cc(OS(=O)(=O)O)c1 [3-hydroxy-5-methoxyphenyl hydrogen sulfate]
[1]; [5]
  activity at 5 µM: 57 ± 6%

## COc1c(O)cc(C(=O)O)cc1OS(=O)(=O)O [4-O-methyl gallic acid-3-sulfate]
[1]; [5]
  TNFα release (Fold-change relative to LPS): 0.50 ± 0.07 Fold-change relative to LPS

## O=S(=O)(O)Oc1cccc(O)c1 [Resorcinol-sulfate, 3-hydroxyphenyl hydrogen sulfate]
[1]; [6]
  release of TNF-α (FIG. 1): reduction in release of TNF-α
[1]; [5]
  activity at 5 µM: 58 ± 13%
[1]
  attenuation of TNFα release at lower concentrations: capability to attenuate TNFα release at lower concentrations
[2]
  multiple cytokines (G-CSF, TNF-α, IL-6, IL-10, IL-1β, CCL17, IL-12p40, TGFβ1, CCL22, IL18, CXCL1) (FIG. 2): reduction in multiple cytokines
[3]
  multiple cytokines (TNF-α, CCL22, IL-10, CCL17, IL-1β, CXCL1, G-CSF, IL-6, IL-18, TGFβ1, IL23, IL-12p40, IL-12p70) (FIG. 3): reduction in multiple cytokines
[4]
  ATP levels (FIG. 5B): protective effects
  cell viability (metabolic capacity) (FIG. 5A): protective effects

## O=S(=O)(O)Oc1ccc(CO)c(O)c1O [2,3-dihydroxy-4-(hydroxymethyl)phenyl hydrogen sulfate]
[1]; [5]
  activity at 5 µM: 48 ± 7%

## COc1c(O)cccc1OS(=O)(=O)O [3-hydroxy-2-methoxyphenyl hydrogen sulfate]
[1]; [5]
  activity at 5 µM: 65 ± 8%

## COc1cccc(OS(=O)(=O)O)c1O [2-hydroxy-3-methoxyphenyl hydrogen sulfate]
[1]; [5]
  activity at 5 µM: 65 ± 11%

## COc1cc(C(=O)O)ccc1OS(=O)(=O)O [3-methoxy-4-(sulfooxy)benzoic acid]
[1]; [5]
  activity at 5 µM: 56 ± 16%
